Consider 18 compounds from patent US20170349593A1, “BTK INHIBITORS” (MERCK SHARP & DOHME CORP., priority 2014, published 2017).

Assay [1] has as its system adenosine uptake into HeLa cells. Briefly: [3H]Adenosine uptake assay. It counts as cell-based. Particulars: Homo sapiens; accumulation of [3H]adenosine into HeLa cells; concentration range 10 μM to 0.032 nM; read-out: ADU inhibition IC50. How it is done:
Compounds are also screened in an adenosine uptake functional cellular assay using the protocol described below:
Adenosine uptake activity was determined by monitoring the accumulation of tritiated adenosine into HeLa cells (ATCC catalog #CCL-2) using a PMT-based radiometric detection instrument. In this assay, the potency (IC50) of each compound was determined from a ten point (1:3 serial dilution; final compound concentration range in assay from 10 μM to 0.032 nM) titration curve using the following outlined procedure. To each well of a 96-well CytoStar-T scintillating microplate (Perkin Elmer Catalog #RPNQ0163), 25 000 HeLa cells in 100 μL of growth medium comprising: Minimum Essential Media (Life Technologies Catalog #11095-080)+10% (v/v) foetal bovine serum (FBS; Sigma Aldrich Catalog #F2442) was added. These cells were incubated overnight at 37° C. in a humidified atmosphere with 5% (v/v) CO2. After this time the growth medium was removed and replaced with 40 μL assay medium comprising: Hanks balanced salts solution (HBSS; Thermo Fisher Catalog # SH30268.01)+5% (v/v) FBS. Compound stock solutions in DMSO were diluted in assay medium to 2.5× final compound concentration maintaining a constant DMSO concentration of 0.25% (v/v). 40 μL of compound in assay medium was dispensed into individual wells of the Cytostar-T plates and the plates were incubated for 30 minutes under ambient laboratory conditions. Following this incubation, 20 μL of 500 nM [^3H] adenosine (American Radiolabeled Chemicals Inc. Catalog #ART0287) in assay medium was added and incubated for a further 60 minutes under ambient laboratory conditions. The amount of radiolabel accumulation was then determined using a Perkin Elmer Topcount NXT microplate reader. In brief, HeLa cells adhere to the bottom of the Cytostar-T plate, uptake of [^3H]adenosine into these cells brings the radiolabel into sufficient proximity to excite the scintillant in the base of the plates. These events are captured by single PMT, time-resolved coincidence counting. IC50 values were determined by 4 parameter robust fit of counts per second values vs. (Log10)) compound concentrations.

For assay [2], the target named is T1, BTK enzyme (recombinant full-length BTK, hBTK) (Homo sapiens, UniProt Q06187).
T1 construct: recombinant protein from baculovirus-transfected S 19 cells: full-length BTK, 6 HIS-tag cleaved; 6 HIS-tag (cleaved yes); made in house
Briefly: Btk enzyme activity assay (LANCE TR-FRET). It counts as biochemical. Particulars: 50 pM hBTK, 25 μM ATP, 60 minute compound and enzyme incubation, concentration range 1 μM to 0.017 nM, read-out: BTK binding IC50. A general note: TR-FRET usually uses a lanthanide donor and a delayed reading to cut background.

SMILES strings stand for the structures.

T1 sequence (Q06187 whole entry): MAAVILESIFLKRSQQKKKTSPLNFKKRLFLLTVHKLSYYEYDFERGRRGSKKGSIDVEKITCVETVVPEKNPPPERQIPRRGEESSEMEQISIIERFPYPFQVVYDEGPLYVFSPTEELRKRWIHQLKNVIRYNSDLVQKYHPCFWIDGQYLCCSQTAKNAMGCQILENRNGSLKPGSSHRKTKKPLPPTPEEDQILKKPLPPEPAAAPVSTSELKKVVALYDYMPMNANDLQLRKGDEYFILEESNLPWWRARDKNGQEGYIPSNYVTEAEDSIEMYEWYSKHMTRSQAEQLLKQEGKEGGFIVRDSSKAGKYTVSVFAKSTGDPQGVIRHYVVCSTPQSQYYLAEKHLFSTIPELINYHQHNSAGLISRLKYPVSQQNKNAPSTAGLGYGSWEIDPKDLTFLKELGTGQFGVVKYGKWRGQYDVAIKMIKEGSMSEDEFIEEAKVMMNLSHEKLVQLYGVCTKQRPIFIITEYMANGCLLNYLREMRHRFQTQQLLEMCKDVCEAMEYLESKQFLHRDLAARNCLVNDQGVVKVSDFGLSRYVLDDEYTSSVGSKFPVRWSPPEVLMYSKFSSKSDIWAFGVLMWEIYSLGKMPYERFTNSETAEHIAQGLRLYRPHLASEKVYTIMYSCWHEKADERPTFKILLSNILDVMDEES

The term IC50 denotes the midpoint of a concentration-inhibition curve. On to `C[C@H](O)C(=O)N1C[C@H](c2nc(-c3ccc(C(=O)Nc4cc(C(F)(F)F)ccn4)cc3)c3c(N)ncc(Cl)n23)OC[C@@H]1C` [Example 45, 4-(8-amino-5-chloro-3-{(2R,5S)-4-[(2S)-2-hydroxypropanoyl]-5-methylmorpholin-2-yl}imidazo[1,5-a]pyrazin-1-yl)-N-[4-(trifluoromethyl)pyridin-2-yl]benzamide], for which the IC50 in assay [1] came out at 0.512 µM; in assay [2], 0.000681 µM. For `C[C@H]1CC[C@@H](c2nc(-c3ccc(C(=O)Nc4cc(C(F)F)ccn4)cc3)c3c(N)nccn23)CN1C(=O)C1(O)CC1` [Example 93, 4-(8-amino-3-{(3R,6S)-1-[(1-hydroxycyclopropyl)carbonyl]-6-methylpiperidin-3-yl}imidazo[1,5-a]pyrazin-1-yl)-N-[4-(difluoromethyl)pyridin-2-yl]benzamide], in that order: 0.0372 µM and 0.000248 µM. For `C[C@H](O)C(=O)N1C[C@H](c2nc(-c3ccc(C(=O)Nc4cc(C(F)(F)F)ccn4)cc3F)c3c(N)ncc(Cl)n23)OC[C@@H]1C` [Example 42, 4-(8-amino-5-chloro-3-{(2R,5S)-4-[(2S)-2-hydroxypropanoyl]-5-methylmorpholin-2-yl}imidazo[1,5-a]pyrazin-1-yl)-3-fluoro-N-[4-(trifluoromethyl)pyridin-2-yl]benzamide], in that order: 0.364 µM and 0.0004 µM. For `CCOc1cc(C(=O)Nc2cc(C(F)(F)F)ccn2)ccc1-c1nc([C@H]2CN(C(=O)C3CC3)[C@@H](C)CO2)n2c(Cl)cnc(N)c12` [Example 8, 4-{8-amino-5-chloro-3-[(2R,5S)-4-(cyclopropylcarbonyl)-5-methylmorpholin-2-yl]imidazo[1,5-a]pyrazin-1-yl}-3-ethoxy-N-[4-(trifluoromethyl)pyridin-2-yl]benzamide], in that order: at least 10 µM and 0.00119 µM. As for `CCOc1cc(C(=O)Nc2cc(C(F)(F)F)n(C)n2)ccc1-c1nc([C@@H]2CC[C@H](C)N(C(=O)[C@@H](C)O)C2)n2ccnc(N)c12` [Example 109, 4-(8-amino-3-{(3R,6S)-1-[(2R)-2-hydroxypropanoyl]-6-methylpiperidin-3-yl}imidazo[1,5-a]pyrazin-1-yl)-3-ethoxy-N-[1-methyl-5-(trifluoromethyl)-1H-pyrazol-3-yl]benzamide], the half-maximal inhibitory concentration (IC50) in assay [1] came out at 3.34 µM; in assay [2], 0.000403 µM.

`COCC(=O)N1C[C@H](c2nc(-c3ccc(C(=O)Nc4cc(C(C)(F)F)ccn4)cc3)c3c(N)nccn23)CC[C@@H]1C` [Example 97, 4-{8-amino-3-[(3R,6S)-1-(methoxyacetyl)-6-methylpiperidin-3-yl]imidazo[1,5-a]pyrazin-1-yl}-N-[4-(1,1-difluoroethyl)pyridin-2-yl]benzamide]: the results for the IC50 in assay [1] and in assay [2] were 0.129 µM and 0.000327 µM, respectively.

As to `CCOc1cc(C(=O)Nc2cc(C(F)(F)F)ccn2)ccc1-c1nc([C@H]2CC[C@@H](C(F)(F)F)N(C(=O)C3CC3)C2)n2ccnc(N)c12` [Example 3, 4-{8-amino-3-[(3S,6S)-1-(cyclopropylcarbonyl)-6-(trifluoromethyl)piperidin-3-yl]imidazo[1,5-a]pyrazin-1-yl}-3-ethoxy-N-[4-(trifluoromethyl)pyridin-2-yl]benzamide], the IC50 turned out to be 0.859 µM in assay [1] and 1 µM in assay [2]. For `COc1cc(C(=O)Nc2cc(C(F)(F)F)ccn2)ccc1-c1nc([C@H]2CN(C(=O)C3CN(C(=O)C4CC4)C3)[C@@H](C)CO2)n2ccnc(N)c12` [Example 34, 4-{8-amino-3-[(2R,5S)-4-{[1-(cyclopropylcarbonyl)azetidin-3-yl]carbonyl}-5-methylmorpholin-2-yl]imidazo[1,5-a]pyrazin-1-yl}-3-methoxy-N-[4-(trifluoromethyl)pyridin-2-yl]benzamide], in that order: at least 10 µM and 0.00265 µM. Regarding `CNC(=O)N1C[C@H](c2nc(-c3ccc(C(=O)Nc4cc(C(F)(F)F)ccn4)c(F)c3)c3c(N)nccn23)CC[C@@H]1C` [Example 94, (2S,5R)-5-[8-amino-1-(3-fluoro-4-{[4-(trifluoromethyl)pyridin-2-yl]carbamoyl}phenyl)imidazo[1,5-a]pyrazin-3-yl]-N,2-dimethylpiperidine-1-carboxamide], in assay [2], the IC50 was 0.000374 µM.

With `C[C@H]1CO[C@@H](c2nc(-c3ccc(C(=O)Nc4ccccn4)cc3)c3c(N)nccn23)CN1C1CCOCC1` [Example 57, 4-{8-amino-3-[(2R,5S)-5-methyl-4-(tetrahydro-2H-pyran-4-yl)morpholin-2-yl]imidazo[1,5-a]pyrazin-1-yl}-N-pyridin-2-ylbenzamide], the concentration for half-maximal inhibition (IC50) in assay [1] came out at 1.02 µM; in assay [2] it was 0.0267 µM.

As for `CCOc1cc(C(=O)Nc2cc(C(F)(F)F)ccn2)ccc1-c1nc([C@H]2CC[C@H](C(F)(F)F)N(C(=O)C3CC3)C2)n2ccnc(N)c12` [Example 2, 4-{8-amino-3-[(3S,6R)-1-(cyclopropylcarbonyl)-6-(trifluoromethyl)piperidin-3-yl]imidazo[1,5-a]pyrazin-1-yl}-3-ethoxy-N-[4-(trifluoromethyl)pyridin-2-yl]benzamide], the IC50 in assay [1] stood at 0.918 µM; in assay [2] it was 0.00138 µM. On to `COc1cc(C(=O)Nc2cc(C(F)(F)F)ccn2)ccc1-c1nc([C@H]2CN(C(=O)[C@H](C)O)[C@@H](C)CO2)n2ccnc(N)c12` [Example 52, 4-(8-amino-3-{(2R,5S)-4-[(2S)-2-hydroxypropanoyl]-5-methylmorpholin-2-yl}imidazo[1,5-a]pyrazin-1-yl)-3-methoxy-N-[4-(trifluoromethyl)pyridin-2-yl]benzamide], for which the values for the IC50 in assay [1] and in assay [2] were 1.99 µM and 0.00226 µM, respectively. For `CCOc1cc(C(=O)Nc2cc(C(F)(F)F)ccn2)ccc1-c1nc([C@H]2CN(C(=O)[C@H](C)O)[C@@H](C)CO2)n2c(CC)cnc(N)c12` [Example 99, 4-(8-amino-5-ethyl-3-{(2R,5S)-4-[(2S)-2-hydroxypropanoyl]-5-methylmorpholin-2-yl}imidazo[1,5-a]pyrazin-1-yl)-3-ethoxy-N-[4-(trifluoromethyl)pyridin-2-yl]benzamide], the IC50 in assay [1] came out at 1.99 µM; in assay [2], 0.000788 µM. For `COc1cc(C(=O)Nc2cc(C(F)(F)F)ccn2)ccc1-c1nc([C@H]2CN(C(=O)C3CC3)[C@@H](C)CO2)n2c(Cl)cnc(N)c12` [Example 47, 4-{8-amino-5-chloro-3-[(2R,5S)-4-(cyclopropylcarbonyl)-5-methylmorpholin-2-yl]imidazo[1,5-a]pyrazin-1-yl}-3-methoxy-N-[4-(trifluoromethyl)pyridin-2-yl]benzamide], in that order: 6.09 µM and 0.00559 µM. Regarding `COCC(=O)N1C[C@H](c2nc(-c3ccc(C(=O)Nc4cc(C(F)(F)F)ccn4)cc3F)c3c(N)nccn23)OC[C@H]1CO` [Example 56, 4-{8-amino-3-[(2R,5R)-5-(hydroxymethyl)-4-(methoxyacetyl)morpholin-2-yl]imidazo[1,5-a]pyrazin-1-yl}-3-fluoro-N-[4-(trifluoromethyl)pyridin-2-yl]benzamide], the half-inhibitory concentration (IC50) in assay [2] was found to be 0.00881 µM.

`CS(=O)(=O)CC(=O)N1C[C@H](c2nc(-c3ccc(C(=O)Nc4cc(C(F)(F)F)ccn4)cc3F)c3c(N)nccn23)OC[C@H]1CO` [Example 58, 4-(8-amino-3-{(2R,5R)-5-(hydroxymethyl)-4-[(methylsulfonyl)acetyl]morpholin-2-yl}imidazo[1,5-a]pyrazin-1-yl)-3-fluoro-N-[4-(trifluoromethyl)pyridin-2-yl]benzamide]: the IC50 in assay [2] was determined as 0.00692 µM. As to `C[C@H]1CO[C@@H](c2nc(-c3ccc(C(=O)Nc4cc(C(F)(F)F)ccn4)cc3F)c3c(N)nccn23)CN1C(=O)C1CC1` [Example 86, 4-{8-amino-3-[(2R,5S)-4-(cyclopropylcarbonyl)-5-methylmorpholin-2-yl]imidazo[1,5-a]pyrazin-1-yl}-3-fluoro-N-[4-(trifluoromethyl)pyridin-2-yl]benzamide], in assay [1], the IC50 came to 0.246 µM. With `C[C@H](O)C(=O)N1C[C@H](c2nc(-c3ccc(C(=O)Nc4cc(C(F)(F)F)ccn4)cc3F)c3c(N)nccn23)OC[C@H]1CO` [Example 59, 4-(8-amino-3-{(2R,5R)-5-(hydroxymethyl)-4-[(2S)-2-hydroxypropanoyl]morpholin-2-yl}imidazo[1,5-a]pyrazin-1-yl)-3-fluoro-N-[4-(trifluoromethyl)pyridin-2-yl]benzamide], the IC50 in assay [2] stood at 0.0122 µM.
